Reference: ChEMBL document CHEMBL6096699, “Tröger's Base as a Potential Bridge to Type-I Photosensitizers: Mechanism and Antitumor Applications” (J Med Chem, 2025)
Activity calls are given as the source filed them. No cut-off for these calls is given here.

What was measured:
[1] = Developmental toxicity in wild type AB zebrafish assessed as effect on morphological abnormalities at 1.57 to 50 uM incubated for 72 hrs under dark condition; parameters: species or system Danio rerio; conditions: in vivo, dose 1.57-50 µM
HepG2 = assay: Phototoxicity against human HepG2 cells assessed as reduction in cell proliferation at 0.156 to 10 uM irradiated with LED light at 1.8 mWcm/2 for 2 hrs and measured after 24 hrs under normoxia condition by MTT assay; assay type: functional, cell-based; conditions: dose 0.156-10 µM, time 26.0 hrs
[2] = Induction of type-1 ROS generation in methanol assessed as generation of OH at 0.5 uM followed by Xe lamp irradiation for 5 mins by DCFH staining based analysis; assay type: functional
A549 [3] = assay: Inhibition of cell migration in human A549 cells assessed as appearance of loose cells at 0.75 uM preincubated for 12 hrs followed by incubation under dark condition and measured after 48 hrs by wound healing assay; assay type: functional, cell-based; conditions: time 60.0 hrs
A549 [4] = assay: Inhibition of cell migration in human A549 cells assessed as appearance of blurred cells at 0.75 uM preincubated for 12 hrs followed by LED light irradiation 1.8 mW cm/2 for 2 hrs and measured after 48 hrs by wound healing assay; assay type: functional, cell-based; conditions: time 62.0 hrs
A549 [5] = assay: Induction of intracellular ROS generation in human A549 cells by measuring red fluorescence at 0.4 to 1.2 uM incubated for 24 hrs in presence of LED light irradiation at 1.8 mW cm/2 by DHE based fluorescence microscopy analysis; assay type: functional, cell-based; conditions: dose 0.4-1.2 µM
[6] = Induction of type-1 ROS generation in tetrahydrofuran assessed as fold increase in DHR123 fluorescence intensity at 0.5 uM followed by LED white light irradiation at 1.8 mWcm/2 for 300 sec by DCFH staining based analysis; assay type: functional
A549 [7] = assay: Inhibition of cell migration in human A549 cells at 0.75 uM preincubated for 12 hrs followed by LED light irradiation 1.8 mW cm/2 for 2 hrs and measured after 48 hrs by wound healing assay; assay type: functional, cell-based; conditions: time 62.0 hrs
[8] = Developmental toxicity in wild type AB zebrafish assessed as effect on morphological abnormalities at 1.57 to 50 uM incubated for 72 hrs followed by LED light irradiation at 1.8 mW cm/2; parameters: species or system Danio rerio; conditions: in vivo, dose 1.57-50 µM
A549 [9] = assay: Induction of intracellular ROS generation in human A549 cells by measuring red fluorescence at 0.4 to 1.2 uM incubated for 24 hrs under dark condition by DHE based fluorescence microscopy analysis; assay type: functional, cell-based; conditions: dose 0.4-1.2 µM
A549 [10] = assay: Inhibition of cell migration in human A549 cells assessed as appearance of loose cells at 0.75 uM preincubated for 12 hrs followed by LED light irradiation 1.8 mW cm/2 for 2 hrs and measured after 48 hrs by wound healing assay; assay type: functional, cell-based; conditions: time 62.0 hrs
A549 [11] = assay: Phototoxicity against human A549 cells assessed as reduction in cell proliferation at 0.156 to 10 uM irradiated with LED light at 1.8 mWcm/2 for 2 hrs and measured after 24 hrs under normoxia condition by MTT assay; assay type: functional, cell-based; conditions: dose 0.156-10 µM, time 26.0 hrs
[12] = Photophysical property of the compound assessed as fluorescence quantum yield; assay type: physicochemical
MDA-MB-231 = assay: Phototoxicity against human MDA-MB-231 cells assessed as reduction in cell proliferation at 0.156 to 10 uM irradiated with LED light at 1.8 mWcm/2 for 2 hrs and measured after 24 hrs under normoxia condition by MTT assay; assay type: functional, cell-based; conditions: dose 0.156-10 µM, time 26.0 hrs
A549 [13] = assay: Inhibition of cell migration in human A549 cells assessed as appearance of blurred cells at 0.75 uM preincubated for 12 hrs followed by incubation under dark condition and measured after 48 hrs by wound healing assay; assay type: functional, cell-based; conditions: time 60.0 hrs
[14] = Induction of type-1 ROS generation in tetrahydrofuran at 0.5 uM followed by LED white light irradiation at 1.8 mWcm/2 for 300 sec by DCFH staining based analysis; assay type: functional
[15] = Dark toxicity in human HBE cells assessed as cell viability incubated for 24 hrs in dark by MTT assay; assay type: cell-based
[16] = Induction of type-1 ROS generation in methanol assessed as generation of O2 at 0.5 uM followed by Xe lamp irradiation for 5 mins by DCFH staining based analysis; assay type: functional
A549 [17] = assay: Inhibition of cell migration in human A549 cells at 0.75 uM preincubated for 12 hrs followed by incubation under dark condition and measured after 48 hrs by wound healing assay; assay type: functional, cell-based; conditions: time 60.0 hrs
MCF7 = assay: Phototoxicity against human MCF7 cells assessed as reduction in cell proliferation at 0.156 to 10 uM irradiated with LED light at 1.8 mWcm/2 for 2 hrs and measured after 24 hrs under normoxia condition by MTT assay; assay type: functional, cell-based; conditions: dose 0.156-10 µM, time 26.0 hrs
[18] = Induction of type-1 ROS generation in tetrahydrofuran assessed as increase in singlet oxygen production by measuring ABDA absorption peak at 0.5 uM followed by LED white light irradiation at 1.8 mWcm/2 for 300 sec by DCFH staining based analysis; assay type: functional

For CCN(CC)c1ccc2cc(C(=O)/C=C/c3ccc4c(c3)CN3CN4Cc4cc(C=O)ccc43)c(=O)oc2c1, the Activity [1] was “Non-toxic”, the Activity (HepG2) was “Active” and the Activity [2] was “Active”. For the same compound, the inhibition (A549 [3]) was “Active”, the inhibition (A549 [4]) was “Active” and the Activity (A549 [5]) was “Active”. For the same compound, the fold change (FC) [6] was 24.1, the inhibition (A549 [7]) was “Active” and the Activity [8] was “Non-toxic”. For the same compound, the Activity (A549 [9]) was “inactive”, the inhibition (A549 [10]) was “Active” and the Activity (A549 [11]) was “Active”. The Fluorescence quantum yield [12] was 0.18, the Activity (MDA-MB-231) was “Active” and the inhibition (A549 [13]) was “Active”. The Activity [14] was “Active”, the Activity [15] was “Toxic” and the Activity [16] was “Active”. For the same compound, the inhibition (A549 [17]) was “Active” and the Activity (MCF7) was “Active”.
For CCN(CC)c1ccc2cc(C(=O)/C=C/c3cc4c(cc3OC)N3Cc5cc(Br)c(OC)cc5N(C4)C3)c(=O)oc2c1, the fold change (FC) [6] was 17.4, the Fluorescence quantum yield [12] was 0.16 and the Activity [14] was “Active”. For the same compound, the Activity [18] was “inactive” and the Activity [15] was “Toxic”.
